Data published in patent publication US20030153056A1, “Glycosyltransferase proteins” (priority 2000, published 2003).

T1: Brainiac β1-3-N-acetylglucosaminyltransferase (Drosophila melanogaster, UniProt Q24157)
T1 construct: The full coding region of Brainiac was prepared by PCR using genomic DNA; made in house; host or cells: High Five insect cells (baculovirus vector pVL1393); microsomal fractions
T1 sequence (Q24157 1-325): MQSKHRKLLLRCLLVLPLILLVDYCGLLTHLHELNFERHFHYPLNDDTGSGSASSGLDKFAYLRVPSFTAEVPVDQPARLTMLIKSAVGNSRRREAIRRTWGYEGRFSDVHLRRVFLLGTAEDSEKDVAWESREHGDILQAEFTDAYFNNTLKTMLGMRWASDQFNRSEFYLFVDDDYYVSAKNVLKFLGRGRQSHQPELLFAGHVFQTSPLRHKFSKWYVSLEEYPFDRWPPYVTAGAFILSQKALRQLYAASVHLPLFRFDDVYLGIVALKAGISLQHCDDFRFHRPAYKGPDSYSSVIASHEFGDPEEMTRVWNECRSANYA


Assays:
[1] = biological target: T1, Brainiac β1-3-N-acetylglucosaminyltransferase; experiment: Substrate specificities of Brainiac β1-3-N-acetylglucosaminyltransferase (acceptor panel, microsomal preparations); format: biochemical; details: microsomes of pVL-Brainiac infected High Five cells, background of irrelevant construct subtracted, donor UDP-GlcNAc
[2] = biological target: T2, Notch (Drosophila melanogaster, UniProt P07207); experiment: Delta-AP binding to Notch transfected S2 cells; format: cell-based
T2 construct: expressed in transfected cells; host or cells: Drosophila Schneider S2 cells, transient transfection, pRmHa3
T2 sequence (P07207 53-2703): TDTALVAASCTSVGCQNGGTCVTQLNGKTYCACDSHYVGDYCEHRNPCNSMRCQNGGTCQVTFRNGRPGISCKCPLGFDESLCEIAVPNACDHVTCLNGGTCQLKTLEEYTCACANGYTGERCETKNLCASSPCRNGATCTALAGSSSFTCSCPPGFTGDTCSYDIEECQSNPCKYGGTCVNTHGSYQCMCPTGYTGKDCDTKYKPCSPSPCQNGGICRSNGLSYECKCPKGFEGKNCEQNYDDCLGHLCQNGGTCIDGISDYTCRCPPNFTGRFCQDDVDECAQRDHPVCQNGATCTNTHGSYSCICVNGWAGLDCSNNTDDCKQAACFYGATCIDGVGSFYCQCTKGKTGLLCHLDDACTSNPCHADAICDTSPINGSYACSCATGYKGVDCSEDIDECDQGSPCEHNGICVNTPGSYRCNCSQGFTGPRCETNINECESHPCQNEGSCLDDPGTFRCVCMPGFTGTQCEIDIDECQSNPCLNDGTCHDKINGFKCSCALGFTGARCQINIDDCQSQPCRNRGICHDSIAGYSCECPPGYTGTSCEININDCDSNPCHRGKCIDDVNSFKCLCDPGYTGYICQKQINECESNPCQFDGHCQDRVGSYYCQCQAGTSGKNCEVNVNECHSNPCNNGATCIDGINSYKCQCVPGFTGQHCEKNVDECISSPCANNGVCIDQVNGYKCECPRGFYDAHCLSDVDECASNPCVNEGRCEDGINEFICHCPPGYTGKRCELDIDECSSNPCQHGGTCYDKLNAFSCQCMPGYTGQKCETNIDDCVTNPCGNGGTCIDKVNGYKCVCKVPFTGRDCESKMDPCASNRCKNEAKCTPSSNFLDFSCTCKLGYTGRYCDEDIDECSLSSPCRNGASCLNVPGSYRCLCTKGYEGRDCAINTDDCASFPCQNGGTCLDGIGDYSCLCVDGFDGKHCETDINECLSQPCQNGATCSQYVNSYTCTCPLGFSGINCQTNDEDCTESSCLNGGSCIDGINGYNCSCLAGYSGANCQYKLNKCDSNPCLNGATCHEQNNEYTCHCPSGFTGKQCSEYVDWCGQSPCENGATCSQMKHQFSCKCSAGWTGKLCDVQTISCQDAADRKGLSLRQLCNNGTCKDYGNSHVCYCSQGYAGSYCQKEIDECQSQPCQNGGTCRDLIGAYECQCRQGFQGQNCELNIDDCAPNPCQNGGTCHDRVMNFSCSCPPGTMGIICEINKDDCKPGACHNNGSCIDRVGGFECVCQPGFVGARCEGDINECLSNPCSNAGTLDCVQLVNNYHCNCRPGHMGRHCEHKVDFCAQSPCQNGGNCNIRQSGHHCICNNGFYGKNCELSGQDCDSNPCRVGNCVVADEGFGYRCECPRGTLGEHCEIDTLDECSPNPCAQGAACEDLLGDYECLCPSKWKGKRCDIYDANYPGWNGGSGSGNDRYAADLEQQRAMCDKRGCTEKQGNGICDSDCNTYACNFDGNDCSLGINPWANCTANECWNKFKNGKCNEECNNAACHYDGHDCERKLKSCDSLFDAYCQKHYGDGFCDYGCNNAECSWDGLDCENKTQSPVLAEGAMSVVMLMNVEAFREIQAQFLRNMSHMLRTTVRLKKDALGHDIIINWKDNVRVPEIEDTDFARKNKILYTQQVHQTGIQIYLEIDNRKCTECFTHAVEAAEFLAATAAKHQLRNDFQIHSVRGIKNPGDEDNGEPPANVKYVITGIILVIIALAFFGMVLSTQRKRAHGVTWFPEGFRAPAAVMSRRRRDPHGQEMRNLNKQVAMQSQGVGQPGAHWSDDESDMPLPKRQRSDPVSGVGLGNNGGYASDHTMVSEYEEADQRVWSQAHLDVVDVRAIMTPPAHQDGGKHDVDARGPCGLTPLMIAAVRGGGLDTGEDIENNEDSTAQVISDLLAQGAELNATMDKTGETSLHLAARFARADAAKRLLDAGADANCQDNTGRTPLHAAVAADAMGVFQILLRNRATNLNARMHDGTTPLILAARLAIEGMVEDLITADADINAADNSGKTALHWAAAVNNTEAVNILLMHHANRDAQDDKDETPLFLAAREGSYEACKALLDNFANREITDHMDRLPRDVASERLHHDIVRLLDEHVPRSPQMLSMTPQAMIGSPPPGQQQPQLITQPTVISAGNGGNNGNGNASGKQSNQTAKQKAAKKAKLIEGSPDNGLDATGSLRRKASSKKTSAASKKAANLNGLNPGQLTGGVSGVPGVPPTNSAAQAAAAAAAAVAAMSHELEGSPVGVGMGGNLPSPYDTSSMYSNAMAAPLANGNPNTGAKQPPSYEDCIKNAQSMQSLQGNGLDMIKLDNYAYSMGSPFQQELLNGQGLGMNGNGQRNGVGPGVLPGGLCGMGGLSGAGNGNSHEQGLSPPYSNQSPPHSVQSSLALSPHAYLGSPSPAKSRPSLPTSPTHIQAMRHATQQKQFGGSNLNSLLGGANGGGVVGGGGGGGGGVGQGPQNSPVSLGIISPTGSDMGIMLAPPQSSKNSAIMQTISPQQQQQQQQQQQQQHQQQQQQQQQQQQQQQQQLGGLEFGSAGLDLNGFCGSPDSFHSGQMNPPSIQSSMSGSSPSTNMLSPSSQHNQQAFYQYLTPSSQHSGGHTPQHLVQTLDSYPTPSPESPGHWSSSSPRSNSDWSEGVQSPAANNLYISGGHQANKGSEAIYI
Description: Cell culture and Binding assays: cDNAs for expression in Schneider S2 cells were cloned into pRmHa3. Cells were transiently transfected by the CaPO4 method using 6-8 μg of DNA per well in 6 well plates. Expression was induced by addition of 0.7 mM CuSO4 for 2 days. Conditioned medium was collected from Notch-AP and Delta-AP transfected cells 2 days after induction. AP activity was adjusted to normalise activity levels of Notch-AP or Delta-AP expressed with or without Fringe. Binding was performed as described in Cheng and Flanagan, 1994. In brief, AP-containing supernatants were supplemented with 0.1% NaN3, and incubated 90 min at room temperature. Cells were washed 5 times in HBSS containing 0.05% BSA and 0.1% azide, and lysed in 10 mM Tris pH 8, 1% Triton-X100. Endogenous AP was inactivated by heat treatment for 10 min 60° C. and the lysates clarified by centrifugation. AP activity was measured in 1M Diethanolamine, 1 mM MgCl2, 5 mM para-nitrophenyl phosphate. Bound AP activity was quantified in 96 well plates using a microplate reader and Micromanager software (BioRad). An additional replicate of each transfection was prepared for immunoblot analysis. Lysates were prepared separately for Immunoblot analysis to allow inclusion of protease inhibitors which are not used in the binding assay. To measure interaction of Delta-AP with transiently transfected S2 cells, bound AP activity was quantified in an enzymatic colour reaction. Cells transfected with empty vector were used as a control. […] AP activity is shown in mOD units/minute in cell extracts (replicate experiments are shown in this figure). In this experiment Fringe stimulated binding by over 50 fold. […] However, the assay allows measurement of Fringe-dependent stimulation of Delta-AP binding.

Molecule | Brainiac activity with substrate ([1]; substrate 2 mM) | Brainiac activity with substrate ([1]; substrate 20 mM) | Delta-AP binding, in words ([2]; Notch-expressing cells co-cultured with Fringe-expressing cells for two days (secreted Fringe)) | Effect on Delta-AP binding, in words ([2]; co-expressed with Notch in S2 cells) | Stimulation of Delta-AP binding ([2]; co-expressed with Notch in S2 cells, FIG. 3b)
OC[C@H]1O[C@@H](O[C@@H]2[C@H](O)[C@@H](O)C(O)O[C@@H]2CO)[C@H](O)[C@@H](O)[C@H]1O (stereo partly drawn) [Galβ1-4Gal] | 0.00 nmol/h/mg | 0.00 nmol/h/mg | – | – | –
Galβ1-4GlcNAc | 0.03 nmol/h/mg | 0.12 nmol/h/mg | – | – | –
Cc1cc(=O)oc2cc(O[C@H]3O[C@H](CO)[C@@H](O)[C@H](O)[C@@H]3O)ccc12 [Manα1-MeUmb] | 0.11 nmol/h/mg | 0.17 nmol/h/mg | – | – | –
COC1OC(CO)C(O)C(O)C1O (stereo not drawn) [Manα1 -Me] | 0.36 nmol/h/mg | 0.61 nmol/h/mg | – | – | –
Cc1cc(=O)oc2cc(O[C@@H]3O[C@H](CO)[C@H](O)[C@H](O)[C@H]3O)ccc12 [Galβ1-MeUmb] | 0.19 nmol/h/mg | 0.00 nmol/h/mg | – | – | –
CO[C@H]1O[C@H](CO)[C@@H](O)[C@H](O)[C@@H]1O[C@@H]1O[C@H](CO)[C@@H](O)[C@H](O)[C@@H]1O [Manβ1-2Manα1-Me] | 0.15 nmol/h/mg | 0.16 nmol/h/mg | – | – | –
OC[C@H]1O[C@H](OC[C@H]2O[C@H](OCc3ccccc3)[C@@H](O)[C@@H](O[C@H]3O[C@H](CO)[C@@H](O)[C@H](O)[C@@H]3O)[C@@H]2O)[C@@H](O)[C@@H](O)[C@@H]1O [Manα1-6(Manα1-3)Manα1-Bzl] | 0.01 nmol/h/mg | 0.08 nmol/h/mg | – | – | –
OC[C@H]1O[C@@H](O[C@H]2[C@H](O)[C@@H](O)[C@H](OCc3ccccc3)O[C@@H]2CO)[C@H](O)[C@@H](O)[C@H]1O [Galβ1-4Glcβ1-Bzl] | 0.48 nmol/h/mg | 1.69 nmol/h/mg | – | – | –
CO[C@H]1O[C@H](CO[C@H]2O[C@H](CO)[C@@H](O)[C@H](O)[C@@H]2O)[C@@H](O)[C@H](O)[C@@H]1O [Manα1-6Manα1-Me] | 0.02 nmol/h/mg | 0.05 nmol/h/mg | – | – | –
C[C@H]1OC(O)[C@H](O)[C@@H](O)[C@H]1O (stereo partly drawn) [D-Fuc] | 0.01 nmol/h/mg | 0.01 nmol/h/mg | – | – | –
Cc1cc(=O)oc2cc(O[C@@H]3O[C@@H](C)[C@@H](O)[C@@H](O)[C@@H]3O)ccc12 [L-Fucα1-MeUmb] | 0.00 nmol/h/mg | 0.00 nmol/h/mg | – | – | –
O=[N+]([O-])c1ccccc1O[C@@H]1O[C@H](CO)[C@H](O)[C@H](O)[C@H]1O [Galβ1-oNph] | 0.21 nmol/h/mg | 0.02 nmol/h/mg | – | – | –
OC[C@H]1O[C@@H](O[C@H]2[C@H](O)[C@H](O)C(O)O[C@@H]2CO)[C@H](O)[C@@H](O)[C@H]1O (stereo partly drawn) [Galβ1-4Man] | 1.48 nmol/h/mg | 8.39 nmol/h/mg | – | – | –

The remaining lines, values ahead:

Brainiac activity with substrate ([1]; substrate 2 mM) | Brainiac activity with substrate ([1]; substrate 20 mM) | Delta-AP binding, in words ([2]; Notch-expressing cells co-cultured with Fringe-expressing cells for two days (secreted Fringe)) | Effect on Delta-AP binding, in words ([2]; co-expressed with Notch in S2 cells) | Stimulation of Delta-AP binding ([2]; co-expressed with Notch in S2 cells, FIG. 3b) | Molecule
0.00 nmol/h/mg | 0.00 nmol/h/mg | – | – | – | Cc1cc(=O)oc2cc(O[C@H]3O[C@H](C)[C@H](O)[C@H](O)[C@H]3O)ccc12 [D-Fucα1-MeUmb]
0.04 nmol/h/mg | 0.02 nmol/h/mg | – | – | – | CC(=O)N[C@H]1[C@H](OCc2ccccc2)O[C@H](CO)[C@@H](O[C@@H]2O[C@H](CO)[C@H](O)[C@H](O)[C@H]2O)[C@@H]1O [Galβ1-4GlcNAcβ1-Bzl]
0.00 nmol/h/mg | 0.00 nmol/h/mg | – | – | – | CC(=O)N[C@H]1[C@H](O[C@H]2[C@@H](O)[C@@H](CO)O[C@@H](O[C@H]3[C@H](O)[C@@H](O)C(O)O[C@@H]3CO)[C@@H]2O)O[C@H](CO)[C@@H](O)[C@@H]1O[C@@H]1O[C@H](CO)[C@H](O)[C@H](O)[C@H]1O (stereo partly drawn) [lacto-N-tetraose]
0.42 nmol/h/mg | 3.08 nmol/h/mg | – | – | – | OC[C@H]1O[C@@H](O[C@H]2[C@H](O)[C@@H](O)C(O)O[C@@H]2CO)[C@H](O)[C@@H](O)[C@H]1O (stereo partly drawn) [Galβ1-4Glc]
0.00 nmol/h/mg | 0.00 nmol/h/mg | – | – | – | CO[C@H]1O[C@H](CO)[C@@H](O)[C@H](O[C@H]2O[C@H](CO)[C@@H](O)[C@H](O)[C@@H]2O)[C@@H]1O [Manα1-3Manα1-Me]
0.10 nmol/h/mg | 0.42 nmol/h/mg | – | – | – | CC(=O)N[C@@H]1C(O)O[C@H](CO)[C@@H](O[C@@H]2O[C@H](CO)[C@H](O)[C@H](O)[C@H]2O)[C@@H]1O (stereo partly drawn) [Galβ1-4ManNAc]
0.01 nmol/h/mg | 0.02 nmol/h/mg | – | – | – | C[C@@H]1O[C@H](Oc2ccc([N+](=O)[O-])cc2)[C@@H](O)[C@H](O)[C@@H]1O [L-Fucβ1-pNph]
0.09 nmol/h/mg | 0.45 nmol/h/mg | – | – | – | OCC1OC(OCC2OC(OCC3OC(O)C(O)C(OC4OC(CO)C(O)C(O)C4O)C3O)C(O)C(OC3OC(CO)C(O)C(O)C3O)C2O)C(O)C(O)C1O (stereo not drawn) [Manα1-3(Manα1-6)Manα1-6(Manα1-3)Man]
0.00 nmol/h/mg | 0.00 nmol/h/mg | – | – | – | CO[C@H]1O[C@H](CO)[C@@H](O[C@H]2O[C@H](CO)[C@@H](O)[C@H](O)[C@@H]2O)[C@H](O)[C@@H]1O [Manα1-4Manα1-Me]
1.46 nmol/h/mg | 2.74 nmol/h/mg | – | – | – | CO[C@@H]1O[C@H](CO)[C@@H](O)[C@H](O)[C@@H]1O [Manβ1-Me]
0.28 nmol/h/mg | 0.60 nmol/h/mg | – | – | – | C[C@@H]1OC(N)[C@@H](O)[C@H](O)[C@@H]1O (stereo partly drawn) [L-Fucosylamine]
5.25 nmol/h/mg | 6.18 nmol/h/mg | – | – | – | Cc1cc(=O)oc2cc(O[C@@H]3O[C@H](CO)[C@@H](O)[C@H](O)[C@@H]3O)ccc12 [Manβ1-MeUmb]
0.03 nmol/h/mg | – | – | – | – | CC(=O)N[C@H]1[C@H](O[C@H]2[C@@H](O)[C@@H](CO)O[C@@H](O[C@H]3[C@H](O)[C@@H](O)C(O)O[C@@H]3CO)[C@@H]2O)O[C@H](CO)[C@@H](O[C@@H]2O[C@H](CO)[C@H](O)[C@H](O)[C@H]2O)[C@@H]1O (mixture of isomers) [lacto-N-neo-tetraose]
– | – | Delta-AP bound at background level | large increase in Delta-AP binding | over 50 fold | Fringe: Drosophila Fringe protein with a single C-terminal myc-epitope tag (protein, UniProt Q24342 1-412, looked up, C-terminal myc tag) Fringe glycosyltransferase: MMSLTVLSPPQRFKRILQAMMLAVAVVYMTLLLYQSAYGYPGIQVPHSQVDALASEAVTTHRDQLLQDYVQSSTPTQPGAGAPAASPTTVIIRKDIRSFNFSDIEVSERPTATLLTELARRSRNGELLRDLSQRAVTATPQPPVTELDDIFISVKTTKNYHDTRLALIIKTWFQLARDQTWFFTDTDDHYYQEKTKGHLINTKCSQGHFRKALCCKMSAELDVFLESGKKWFCHFDDDNYVNVPRLVKLLDEYSPSVDWYLGKPSISSPLEIHLDSKNTTTNKKITFWFATGGAGFCLSRALTLKMLPIAGGGKFISIGDKIRFPDDVTMGFIIEHLLKVPLTVVDNFHSHLEPMEFIRQDTFQDQVSFSYAHMKNQWNVIKVDGFDMKTDPKRFYSLHCQLFPYFSFCPPR
